Assays:
PANC-1 [1] = experiment: Cytotoxicity against human PANC1 cells grown in nutrient-deprived medium after 24 hrs by WST8 assay; assay type: functional
PANC-1 [2] = experiment: Cytotoxicity against human PANC1 cells grown in DMEM medium after 24 hrs by WST8 assay; assay type: functional

SMILES: O=C(OC[C@]1(O)C=C[C@H](O)[C@@H](OC(=O)c2ccccc2)[C@@H]1O)c1ccccc1 [UVARIDACOL E]
- PC50 (PANC-1 [1]): 135 µM

SMILES: COc1cc(C[C@H]2C(=O)OC[C@@H]2Cc2ccc(OC)c(OC)c2)ccc1O [ARCTIGENIN]
- PC50 (PANC-1 [1]): 1 µM

SMILES: Nc1ccn([C@@H]2O[C@H](CO)[C@@H](O)C2(F)F)c(=O)n1 [GEMCITABINE]
- PC50 (PANC-1 [2]): >200 µM
- PC50 (PANC-1 [1]): >200 µM

SMILES: O=C(OC[C@]1(O)C=C[C@@H](O)[C@H](O)[C@H]1OC(=O)c1ccccc1)c1ccccc1 [UVARIDACOL G]
- PC50 (PANC-1 [1]): >200 µM

SMILES: CC(=O)O[C@@H]1[C@@H](OC(=O)c2ccccc2)[C@@H](O)C=C[C@]1(O)COC(=O)c1ccccc1 [UVARIDACOL F]
- PC50 (PANC-1 [1]): 124 µM

SMILES: O=c1[nH]cc(F)c(=O)[nH]1 [FLUOROURACIL]
- PC50 (PANC-1 [2]): >200 µM
- PC50 (PANC-1 [1]): >200 µM

SMILES: CC(=O)O[C@@H]1[C@@H](O)[C@H](OC(=O)c2ccccc2)C=C[C@@]1(O)COC(=O)c1ccccc1 [UVARIDACOL H]
- PC50 (PANC-1 [1]): 156 µM
